How the values were obtained:
[1] = system: B cell activation in rat whole blood; assay: Determination of B cell activity in whole blood of rats (anti-rat IgD induced); format: cell-based; conditions: anti-rat immunoglobulin D, 18 hours, flow cytometry B220/CD86, read-out: IC50 value, inhibiting B cell activation in rat whole blood
Protocol: In the determination of the compound activity, the collected peripheral whole blood of rat was added to a 96 well plate at 80 μL/well and cultured in a 5% CO2, 37° C. cell incubator. […]
On the second day, the 96-well plates were taken out and the flow cytometry antibody mixture (the final concentration of anti-rat B220PE antibody was 1 μg/mL and the final concentration of anti-rat CD86 FITC antibody was 1 μg/mL) diluted with PBS was added to each well of plate, which were incubated for 30 minutes in the dark, and then 50 […] of blood from each well was pipetted to the freshly prepared 500 μL of lysis buffer to lyse red blood cells. The plates were shaken for 20 minutes, centrifuged to remove the supernatant, then washed, fixed, and detected on a flow cytometer.
The B cell activation in the sample was determined by flow dyeing method. […]
The inhibition ratio is calculated as follows: inhibition ratio (%)=100%−{(treating well for the test compound−negative control treating well)/(control treating well for anti-rat immunoglobulin D−negative control treating well)}×100%, wherein, […]

[2] = Drug concentration in plasma of mice of the B cell activation study; format: in vivo; conditions: C57BL/6, plasma; mouse, 5 mg/kg oral, 16 h after administration
Protocol: The animals of each group were administered, then were placed in CO2 for anesthesia at designated time points, blood samples were taken from […] via retro-orbital bleeding, and heparin was used for anticoagulation; 90 μL of whole blood was taken from mice of each group, and added to a 96 well culture plate, and anti-mouse IgD antibody (BIO-RAD, Cat #MCA4693) was added to each well to a final concentration of 0.01 μg/μL (respectively for each drug-treated group and anti-IgD antibody-inducted vehicle group); in addition, 90 μL of whole blood of mice in the vehicle group was taken and added to the 96-well culture plate, and PBS (phosphate buffer, GIBCO, Cat # C20012500BT) was added to each well to a final concentration of 0.01 μg/μL (namely, the vehicle control group); Each group was mixed well and incubated in a 37° C./5% CO2 incubator for 4 hours. In addition, the blood of mice in the drug-treated group was centrifuged to separate plasma for blood concentration analysis.

[3] = system: ITP mice (anti-mouse CD41 antibodies); assay: Idiopathic thrombocytopenic purpura induced by anti-CD41 antibody in mice; format: in vivo; conditions: 8 hours after modeling, single oral dose
Protocol: Male C57BL/6 mice were purchased from Shanghai Lingchang Biotechnology Co., Ltd. (certificate number 20180003011079, initial body weight of 18-20 grams), and were randomly grouped according to Table 4, with 8 mice in each group. […] When modeling, each mouse was intraperitoneally injected with 200 μL of PBS solution containing 2 μg of anti-mouse CD41 antibodies (BD, Cat #: 553487, Lot #: 7026765).
Eight hours and twenty-four hours after modeling, the whole blood was collected and placed in a centrifuge tube coated with 10% citrate-phosphate-dextrose-adenine (CPDA), and the level of platelets (PLT) in the whole blood was measured by an XT-2000i (SYSMEX) automatic blood analyzer (Shanghai Laboratory Animal Research Centre Sino-British SIPPR/B & K Lab Animal Ltd).
The average level of platelets in peripheral blood was analyzed with Graphpad statistical software by one way ANOVA followed by Fisher LSD multiple comparison test, and the p value was calculated, wherein *p<0.05 indicated a statistically significant difference compared with the vehicle control group, **p<0.01 indicated a statistically extremely significant difference compared with the vehicle control group, and ##p<0.01 indicated a statistically extremely significant difference compared with the normal group. […]

SMILES: C[C@H]1CN(C2COC2)C[C@H](C)N1c1ccc(Nc2cc(-c3ccnc(-n4ccn5c6c(cc5c4=O)CC(C)(C)C6)c3CO)cn(C)c2=O)nc1 [Compound 1, 2-(5-((5-((2S,6S)-2,6-dimethyl-4-(oxetan-3-yl)piperazin-1-yl)pyridin-2-yl)amino)-3′-(hydroxymethyl)-1-methyl-6-oxo-1,6-dihydro-[3,4′-bipyridin]-2′-yl)-7,7-dimethyl-7,8-dihydro-2H-cyclopenta[4,5]pyrrolo[1,2-a]pyrazin-1(6H)-one]
- IC50 [1]: 1 nM
- concentration at 16 h [2]: 6.27 ± 1.68 ng/mL
- minimum effective dose [3]: 0.04 mg/kg

— patent publication US11655254B2, “Substituted piperazines as BTK inhibitors” (HUTCHISON MEDIPHARMA LIMITED, priority 2020, dated 2023)
